Assay results reported in ChEMBL document CHEMBL1201862, “PubChem BioAssay data set” (2004).
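96-well plates; 48 h exposure; 5 concentrations. Endpoints by linear interpolation between flanking doses. Not reached: highest tested concentration assigned. At the GI50, growth is halved.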 The source made the active and inactive calls. Rule as the data show it: active = GI50 up to about 1.1 µM and inactive = higher.

Tests used:
Assay in all cases: NCI tumour cell line growth inhibition, 48 h
HOP-92 = tested on: HOP-92
OVCAR-8 = tested on: OVCAR-8
UO-31 = tested on: UO-31
SK-MEL-2 = tested on: SK-MEL-2
EKVX = tested on: EKVX
SK-MEL-5 = tested on: SK-MEL-5
SN12C = tested on: SN12C
MDA-MB-435 = tested on: MDA-MB-435
SF-268 = tested on: SF-268
OVCAR-3 = tested on: OVCAR-3
DU-145 = tested on: DU-145
Hs-578T = tested on: Hs-578T
OVCAR-4 = tested on: OVCAR-4
OVCAR-5 = tested on: OVCAR-5
BT-549 = tested on: BT-549
TK-10 = tested on: TK-10
A498 = tested on: A498
RXF 393 = tested on: RXF 393
COLO 205 = tested on: COLO 205
MDA-N = tested on: MDA-N

Row | SMILES | GI50 (HOP-92) | GI50 (OVCAR-8) | GI50 (UO-31) | GI50 (SK-MEL-2) | GI50 (EKVX) | GI50 (SK-MEL-5) | GI50 (SN12C) | GI50 (MDA-MB-435) | GI50 (SF-268) | GI50 (OVCAR-3) | GI50 (DU-145) | GI50 (Hs-578T) | GI50 (OVCAR-4) | GI50 (OVCAR-5) | GI50 (BT-549) | GI50 (TK-10) | GI50 (A498) | GI50 (RXF 393) | GI50 (COLO 205) | GI50 (MDA-N)
1 | Cc1cn2c(/C=N/NC(=N)N)c(-c3cccc([N+](=O)[O-])c3)nc2s1 | 1.64 µM (inactive) | 1.78 µM (inactive) | 5.62 µM (inactive) | 1.96 µM (inactive) | 2.38 µM (inactive) | 1.63 µM (inactive) | 1.71 µM (inactive) | 1.82 µM (inactive) | 1.08 µM (active) | 1.26 µM (inactive) | 1.74 µM (inactive) | 2.38 µM (inactive) | 0.153 µM (active) | 2.07 µM (inactive) | 1.75 µM (inactive) | 2.21 µM (inactive) | 1.48 µM (inactive) | 1.15 µM (inactive) | – | –
2 | CO[C@@]12C[C@H](CNC(=O)c3ccc[nH]3)O[C@@H]1NC(=O)N2 | > 100 µM (inactive) | > 100 µM (inactive) | > 100 µM (inactive) | > 100 µM (inactive) | > 100 µM (inactive) | > 100 µM (inactive) | > 100 µM (inactive) | > 100 µM (inactive) | > 100 µM (inactive) | > 100 µM (inactive) | > 100 µM (inactive) | > 100 µM (inactive) | > 100 µM (inactive) | > 100 µM (inactive) | > 100 µM (inactive) | > 100 µM (inactive) | > 100 µM (inactive) | – | > 100 µM (inactive) | –
3 | Clc1ccc(/C=c2\nc(-c3ccccc3)n3c2nc2ccccc23)cc1 | > 100 µM (inactive) | 32.7 µM (inactive) | > 100 µM (inactive) | > 100 µM (inactive) | 19.7 µM (inactive) | > 100 µM (inactive) | > 100 µM (inactive) | > 100 µM (inactive) | 34.4 µM (inactive) | 51.9 µM (inactive) | > 100 µM (inactive) | 49.3 µM (inactive) | 56.4 µM (inactive) | > 100 µM (inactive) | 63.2 µM (inactive) | > 100 µM (inactive) | > 100 µM (inactive) | 28.7 µM (inactive) | > 100 µM (inactive) | –
4 | O=[N+]([O-])c1ccc(CN(CCCl)OCCCl)cc1 | – | > 100 µM (inactive) | 37.8 µM (inactive) | > 100 µM (inactive) | 92.7 µM (inactive) | 51.3 µM (inactive) | > 100 µM (inactive) | > 100 µM (inactive) | > 100 µM (inactive) | > 100 µM (inactive) | > 100 µM (inactive) | > 100 µM (inactive) | 56.9 µM (inactive) | > 100 µM (inactive) | > 100 µM (inactive) | > 100 µM (inactive) | – | > 100 µM (inactive) | > 100 µM (inactive) | > 100 µM (inactive)
5 | Cc1ccc(C)n2c1nc1ccc3ccccc3c12 | 40.6 µM (inactive) | > 100 µM (inactive) | 61 µM (inactive) | – | 27.9 µM (inactive) | 50.2 µM (inactive) | > 100 µM (inactive) | > 100 µM (inactive) | > 100 µM (inactive) | > 100 µM (inactive) | > 100 µM (inactive) | 49.9 µM (inactive) | – | > 100 µM (inactive) | > 100 µM (inactive) | > 100 µM (inactive) | – | > 100 µM (inactive) | > 100 µM (inactive) | > 100 µM (inactive)
6 | O=C(c1ccco1)N(C(=S)OCc1ccccn1)c1ccccc1 | – | > 100 µM (inactive) | 43.9 µM (inactive) | > 100 µM (inactive) | 13.3 µM (inactive) | 88.9 µM (inactive) | > 100 µM (inactive) | > 100 µM (inactive) | > 100 µM (inactive) | > 100 µM (inactive) | > 100 µM (inactive) | > 100 µM (inactive) | – | > 100 µM (inactive) | > 100 µM (inactive) | > 100 µM (inactive) | > 100 µM (inactive) | 30.9 µM (inactive) | > 100 µM (inactive) | > 100 µM (inactive)
7 | Cc1cc(S(=O)(=O)Nc2nc(N)nc(N3N=CCC3C)n2)c(S)cc1Cl (centres undefined) | > 10 µM (inactive) | > 10 µM (inactive) | > 10 µM (inactive) | > 10 µM (inactive) | > 10 µM (inactive) | > 10 µM (inactive) | > 10 µM (inactive) | – | > 10 µM (inactive) | > 10 µM (inactive) | > 10 µM (inactive) | > 10 µM (inactive) | > 10 µM (inactive) | > 10 µM (inactive) | > 10 µM (inactive) | > 10 µM (inactive) | > 10 µM (inactive) | > 10 µM (inactive) | > 10 µM (inactive) | > 10 µM (inactive)
8 | CCN(CC)CCn1nc(N)c2nc3ccccc3nc21 | > 100 µM (inactive) | > 100 µM (inactive) | > 100 µM (inactive) | > 100 µM (inactive) | > 100 µM (inactive) | – | > 100 µM (inactive) | > 100 µM (inactive) | > 100 µM (inactive) | > 100 µM (inactive) | – | > 100 µM (inactive) | > 100 µM (inactive) | > 100 µM (inactive) | > 100 µM (inactive) | > 100 µM (inactive) | > 100 µM (inactive) | > 100 µM (inactive) | – | > 100 µM (inactive)
9 | OCC(O)COCn1nncc1Cn1ncc2c(SCc3ccccc3)ncnc21 (centres undefined) | – | > 100 µM (inactive) | > 100 µM (inactive) | > 100 µM (inactive) | > 100 µM (inactive) | > 100 µM (inactive) | > 100 µM (inactive) | > 100 µM (inactive) | 14.5 µM (inactive) | > 100 µM (inactive) | > 100 µM (inactive) | 0.203 µM (active) | > 100 µM (inactive) | > 100 µM (inactive) | > 100 µM (inactive) | > 100 µM (inactive) | > 100 µM (inactive) | – | > 100 µM (inactive) | > 100 µM (inactive)
10 | COc1ccc(C(SC2C(O)C(CO)OC2n2ccc(N)nc2=O)(c2ccccc2)c2ccc(OC)cc2)cc1 (centres undefined) | 17.5 µM (inactive) | 28.1 µM (inactive) | 18.5 µM (inactive) | 16.8 µM (inactive) | 18.1 µM (inactive) | 12.9 µM (inactive) | 13.3 µM (inactive) | 10.9 µM (inactive) | 17.7 µM (inactive) | 18.7 µM (inactive) | 18.5 µM (inactive) | 18.4 µM (inactive) | 24.8 µM (inactive) | 20.1 µM (inactive) | 18.2 µM (inactive) | 26.8 µM (inactive) | – | 17.5 µM (inactive) | 14.6 µM (inactive) | 10.1 µM (inactive)
11 | Cc1cc2c(cc1Cl)SC(c1ccccc1O)NS2(=O)=O (centres undefined) | 54.1 µM (inactive) | > 100 µM (inactive) | 63.2 µM (inactive) | 87.3 µM (inactive) | 56.9 µM (inactive) | 42.7 µM (inactive) | 41 µM (inactive) | 45.7 µM (inactive) | 91.4 µM (inactive) | 21.7 µM (inactive) | 33.9 µM (inactive) | 38.5 µM (inactive) | 63.7 µM (inactive) | 40.1 µM (inactive) | 47.2 µM (inactive) | > 100 µM (inactive) | > 100 µM (inactive) | 53.5 µM (inactive) | 20.8 µM (inactive) | –
12 | O=[N+]([O-])c1ccc(SN=S=NSc2cccc(SN=S=NSc3ccc([N+](=O)[O-])cc3)c2)cc1 | > 100 µM (inactive) | 22.4 µM (inactive) | 23.8 µM (inactive) | 17.1 µM (inactive) | 39.3 µM (inactive) | 28.4 µM (inactive) | 12.4 µM (inactive) | 25.2 µM (inactive) | 33 µM (inactive) | 62.1 µM (inactive) | – | 58.3 µM (inactive) | 36.7 µM (inactive) | 25.4 µM (inactive) | 19.3 µM (inactive) | – | 94.8 µM (inactive) | – | 46.5 µM (inactive) | 30.8 µM (inactive)
13 | CCCCCCCCCCCCCCCCC(C(=O)O)C(O)(CC(=O)O)C(=O)O (centres undefined) | – | 39.1 µM (inactive) | 20.3 µM (inactive) | 18.9 µM (inactive) | 20.2 µM (inactive) | 39.1 µM (inactive) | 21.7 µM (inactive) | 34.8 µM (inactive) | 28.6 µM (inactive) | 18.5 µM (inactive) | 35.6 µM (inactive) | 24.1 µM (inactive) | – | 17.9 µM (inactive) | 20.3 µM (inactive) | 34.8 µM (inactive) | 21 µM (inactive) | 22.1 µM (inactive) | 18.7 µM (inactive) | 47 µM (inactive)
14 | C[C@H](CC[C@@H](O)C(C)(C)O)[C@H]1CC[C@@]2(C)[C@@H]3CC=C4[C@@H](CC[C@H](O)C4(C)C)[C@]3(C)C(=O)C[C@]12C [BRYODULCOSIGENIN] | – | 27.4 µM (inactive) | 34 µM (inactive) | 40.7 µM (inactive) | 21.2 µM (inactive) | 24.7 µM (inactive) | 28.6 µM (inactive) | 37.6 µM (inactive) | – | > 50 µM (inactive) | > 50 µM (inactive) | 45.7 µM (inactive) | > 50 µM (inactive) | 16.8 µM (inactive) | 23.6 µM (inactive) | > 50 µM (inactive) | > 50 µM (inactive) | – | 11.1 µM (inactive) | 22.9 µM (inactive)
15 | Cn1cc(NC(=O)c2cc(NC(=O)c3cc(NC=O)cn3C)cn2C)cc1C(=O)NCCC(=N)N [STALLIMYCIN] | – | > 100 µM (inactive) | > 100 µM (inactive) | > 100 µM (inactive) | > 100 µM (inactive) | > 100 µM (inactive) | > 100 µM (inactive) | > 100 µM (inactive) | > 100 µM (inactive) | > 100 µM (inactive) | > 100 µM (inactive) | 53.1 µM (inactive) | – | > 100 µM (inactive) | > 100 µM (inactive) | > 100 µM (inactive) | 87.9 µM (inactive) | > 100 µM (inactive) | > 100 µM (inactive) | –
